One series has as its system H × 10 (HIV-1) strain. The protocol: SPC3 is (GPGRAF)8-(K)4-(K)2-K-βA-OH as disclosed in WO95/07929. D4 and D5 refer to days 4 and 5 of the experiment. OD stands for Optical Density. N.B. Experiments were performed with non diluted virus solution.
The next series deals with C57/BL6 and Balb-C mice. The experiment in a line: Intra-cerebroventricular injection toxicity in mice. Conditions: 3×10^−3 M, 100 μg of peptide per 20 g mouse. The series is classed as in vivo.

Structures are written as SMILES. Read-outs that look alike come from different tables or passages of the source.

Turning to `CC(C)C[C@H](NC(=O)[C@@H]1CCCN1C(=O)[C@H](CO)NC(=O)[C@H](Cc1ccc(O)cc1)NC(=O)CNC(=O)[C@H](CCC(N)=O)NC(=O)[C@@H](N)CCCNC(=N)N)C(=O)NCCCC[C@H](NC(=O)[C@H](CC(C)C)NC(=O)[C@@H]1CCCN1C(=O)[C@H](CO)NC(=O)[C@H](Cc1ccc(O)cc1)NC(=O)CNC(=O)[C@H](CCC(N)=O)NC(=O)[C@@H](N)CCCNC(=N)N)C(=O)NCCCC[C@H](NC(=O)[C@H](CCCCNC(=O)[C@H](CC(C)C)NC(=O)[C@@H]1CCCN1C(=O)[C@H](CO)NC(=O)[C@H](Cc1ccc(O)cc1)NC(=O)CNC(=O)[C@H](CCC(N)=O)NC(=O)[C@@H](N)CCCNC(=N)N)NC(=O)[C@H](CC(C)C)NC(=O)[C@@H]1CCCN1C(=O)[C@H](CO)NC(=O)[C@H](Cc1ccc(O)cc1)NC(=O)CNC(=O)[C@H](CCC(N)=O)NC(=O)[C@@H](N)CCCNC(=N)N)C(=O)NCCCC[C@H](NC(=O)[C@H](CCCCNC(=O)[C@H](CCCCNC(=O)[C@H](CC(C)C)NC(=O)[C@@H]1CCCN1C(=O)[C@H](CO)NC(=O)[C@H](Cc1ccc(O)cc1)NC(=O)CNC(=O)[C@H](CCC(N)=O)NC(=O)[C@@H](N)CCCNC(=N)N)NC(=O)[C@H](CC(C)C)NC(=O)[C@@H]1CCCN1C(=O)[C@H](CO)NC(=O)[C@H](Cc1ccc(O)cc1)NC(=O)CNC(=O)[C@H](CCC(N)=O)NC(=O)[C@@H](N)CCCNC(=N)N)NC(=O)[C@H](CCCCNC(=O)[C@H](CC(C)C)NC(=O)[C@@H]1CCCN1C(=O)[C@H](CO)NC(=O)[C@H](Cc1ccc(O)cc1)NC(=O)CNC(=O)[C@H](CCC(N)=O)NC(=O)[C@@H](N)CCCNC(=N)N)NC(=O)[C@H](CC(C)C)NC(=O)[C@@H]1CCCN1C(=O)[C@H](CO)NC(=O)[C@H](Cc1ccc(O)cc1)NC(=O)CNC(=O)[C@H](CCC(N)=O)NC(=O)[C@@H](N)CCCNC(=N)N)C(=O)NCCC(=O)O` [RL1, (RQGYSPL)8-(K)4-(K)2-K-βA-OH], the Inhibition – broadly, the percentage by which the read-out fell short of the control – with H × 10 (HIV-1) strain (Molarity 1 × 10^−5, day 4, non diluted virus solution) was determined as 79.82%; in the series with H × 10 (HIV-1) strain (Molarity 1 × 10^−6, day 4, non diluted virus solution) it was 31.29%; in the series with H × 10 (HIV-1) strain (Molarity 5 × 10^−5, day 4, non diluted virus solution), 99.09%; in the series on H × 10 (HIV-1) strain (Molarity 5 × 10^−5, day 5, non diluted virus solution), 99.75%; in the series on H × 10 (HIV-1) strain (Molarity 5 × 10^−6, day 4, non diluted virus solution), 61.45%. Besides, in the series on C57/BL6 and Balb-C mice, the “cellular toxicity and lethal activity” value was “neither cellular toxicity nor lethal activity”.

The values are drawn from patent publication US7285621B2, “Multiple branch peptide construction” (Ambrilia Biopharma, priority 1999, dated 2007).
